The source of these data is PubChem BioAssay (NCI).

Values joined by “and” are separate entries in the source; they are usually repeats but may differ in a detail not shown here. Identical values can stand only once.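 96-well plates; 48 h exposure; 5 concentrations. Endpoints by linear interpolation between flanking doses. Not reached: highest tested concentration assigned. GI50 is the concentration that inhibits growth by half. At the TGI there is no net growth.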

What all share (test): growth of human tumour cells (NCI), 48 h
In test [1] the test system is DU-145 prostate.
In test [2] the test system is ACHN renal.
Test [3] deals with KM12 colon.
Test [4] concerns NCI-H522 lung.
In test [5] the test system is SNB-75 CNS.
For test [6], the system named is SF-539 CNS.
Test [7] deals with COLO 205 colon.
Test [8] concerns RXF 393 renal.
The subject of test [9] is 786-0 renal.
Test [10] relates to OVCAR-5 ovarian.

For `c1ccc2c(c1)-c1ccccc1C2N1CC2CCC(CC2)C1`, the TGI stood at 92 µM in test [1]; 53.4 µM in test [2]; 39.9 µM in [3]; 28.5 µM in test [4]; 61.4 µM in test [5]; 48.9 µM in test [6]. Moreover, the TGI is 38.1 µM in test [7], 33.7 µM in test [8], over 100 µM in [9] and 37.2 µM in test [10].
With `Cc1cc2cc3c(C)cc(=O)oc3c(C)c2o1`, the TGI in test [1], in [2], in [3], in [4], in test [5] and in test [6] was over 100 µM throughout. The TGI in [7], in test [8], in test [9] and in test [10] was over 100 µM throughout.
Regarding `Cc1cc(-c2nnc(N)nc2-c2ccc(F)cc2)cc(Cl)n1`, the GI50 is over 100 µM in test [1]; 73.3 µM in test [2]; over 100 µM in [3]; 55.9 µM in test [4]; 54.3 µM in test [5]; over 100 µM in test [6]. Besides, the GI50 in [7] was over 100 µM; in [8], 87.2 µM; in test [9], over 100 µM; in test [10], over 100 µM. Further, the TGI in test [1], in test [2], in test [3], in test [4], in [5] and in test [6] was over 100 µM each time. The TGI in test [7], in test [8], in [9] and in [10] was over 100 µM in each case.
Take `COc1ccc2c(CN3CCC[C@H]3C(=O)O)cc3cc4c(cc3c2c1)OCO4`: the GI50 in test [1] is 19.7 µM; in [2], 5.97 µM; in test [3] it was 12 µM; in [4] it was 11.1 µM; in test [5], 11.4 µM; in [6] it was 10.7 µM. In addition, the GI50 was 6.3 µM in test [7], 6.81 µM in [8], 16.2 µM in test [9] and 38.1 µM in test [10]. The TGI in [1] is over 100 µM; in test [2], over 100 µM; in test [3], 41.8 µM; in test [4], 95.2 µM; in [5], 30.1 µM; in test [6] it was 29.5 µM. The TGI in test [7] was 46.2 µM; in test [8] it was 23.2 µM; in test [9], over 100 µM; in test [10] it was over 100 µM.
Take `C=C1C(=O)[C@@]23CC1C(O)[C@@H](OC(C)=O)[C@@H]2C1(C)C(OC(C)=O)C[C@@H](OC(C)=O)C(C)(C)[C@@H]1C[C@H]3OC(C)=O` (stereo partly drawn): the GI50 in test [1] is 16.9 µg/mL; in [2] it was 4.26 µg/mL; in test [3], > 10 µM and 5.94 µg/mL; in test [4], 1.31 µM and 0.288 µg/mL; in test [5], > 10 µM and 7.25 µg/mL; in test [6], 1.69 µM and 3.73 µg/mL. The GI50 was 1.69 µM and 1.72 µg/mL in test [7]; 362 nM and 1.8 µg/mL in test [8]; 1.81 µg/mL in test [9]; > 10 µM and 7.32 µg/mL in test [10]. In addition, the TGI is > 10 µM and 30.6 µg/mL in test [1]; > 10 µM and 16.6 µg/mL in test [2]; > 10 µM and 17.1 µg/mL in test [3]; 2.64 µM and 1.44 µg/mL in [4]; > 10 µM and 20.5 µg/mL in [5]; 3.7 µM and 11.6 µg/mL in test [6]. The TGI is 3.15 µM and 3.26 µg/mL in test [7]; 4.21 µM and 5.35 µg/mL in test [8]; > 10 µM and 3.97 µg/mL in test [9]; > 10 µM and 16 µg/mL in test [10].
On to `CN(C)C1CCN(C(=O)c2ccc(NC(=O)Nc3ccc(-c4nc(N5CCOCC5)nc(N5CCOCC5)n4)cc3)cc2)CC1`, for which the GI50 was 0.0157 µM and 0.0156 µM and 0.0258 µM in test [1]; 1.42 µM and 1.06 µM in test [2]; 0.0355 µM and 0.0423 µM and 0.0437 µM in test [3]; 0.0102 µM and 0.0103 µM and 0.0246 µM in test [4]; < 0.01 µM and 0.00585 µM and 0.00568 µM in [5]; < 0.0129 µM and 0.0143 µM and 0.0416 µM in test [6]. Moreover, the GI50 is 0.0136 µM and 0.0334 µM and 0.012 µM in [7]; 0.023 µM and 0.0271 µM and 0.21 µM in [8]; 0.237 µM and 0.136 µM and 0.571 µM in test [9]; 0.0167 µM and 0.0317 µM and 0.0166 µM in test [10]. Besides, the TGI in test [1] is 14.6 µM and 2.5 µM and 7.51 µM; in test [2], over 100 µM; in test [3], 7.73 µM and 2.5 µM and 2.36 µM; in [4], 0.0758 µM and 0.207 µM and 0.371 µM; in test [5] it was 0.0164 µM and 0.0427 µM and 0.0783 µM; in [7], 0.155 µM and 0.545 µM and 0.188 µM. Also, the TGI in test [9] is 2.82 µM and 2.5 µM and 8.53 µM; in test [10], 0.325 µM and 2.5 µM and 0.331 µM.
